According to patent EP4112046A1, “PHARMACEUTICAL COMPOSITION AND USE THEREOF” (Alphala Co., Ltd., priority 2021, dated 2023):

Experiment: Solubility in buffers or solutions, LC-MS/MS
Format: physicochemical
Conditions: 3 mg/mL, 37°C, 24 hrs
Procedure: The test formulation was added into indicated buffers or solutions (ddH2O or 0.9% saline, pH 7.4) to the final concentration of 3 mg/mL, followed by sonicating for 30 mins. Next, the mixture was put into 37°C water bath for 24 hrs. The mixture was mixed well by vortex and 1 mL of mixture was transferred into the 1.5 mL eppendorf tube, followed by centrifuging at 20817 xg for 30 mins. 10 µL of the supernatant was collected, and the concentration of the collected supernatant was determined by LC-MS/MS.

CCOC(=O)CCNC(=O)c1ccc(N[C@H](c2ccc(-c3nnc(-c4ccccc4)o3)cc2)C(C)C)cc1 [ALP001E]
Solubility (mg/ml) (H2O (pH7.0)): < LOQ
Solubility (mg/ml) (Saline (pH7.4)): < LOQ
